Experimental data: patent publication US12415770B2, “Modulators of liver receptor homologue 1 (LRH-1) and uses” (Emory University, priority 2017, dated 2025)
Read-outs that look alike come from different tables or passages of the source.

Key:
LRH-1 LBD = molecular target: T1, LRH-1 LBD (Homo sapiens, UniProt O00482); assay: Thermofluor (DSF) assay, purified LRH-1 LBD-His protein; type: binding; settings: for ΔTm at 50 µM: read-out: ΔTm (mean +/− SEM) (° C.)
T1 construct: LRH-1 LBD (residues 299-541) in the pMSC7 vector was expressed in BL21 (DE3) pLysS E. coli; made in house; host or cells: E. coli BL21 (DE3) pLysS
T1 sequence (O00482 299-541): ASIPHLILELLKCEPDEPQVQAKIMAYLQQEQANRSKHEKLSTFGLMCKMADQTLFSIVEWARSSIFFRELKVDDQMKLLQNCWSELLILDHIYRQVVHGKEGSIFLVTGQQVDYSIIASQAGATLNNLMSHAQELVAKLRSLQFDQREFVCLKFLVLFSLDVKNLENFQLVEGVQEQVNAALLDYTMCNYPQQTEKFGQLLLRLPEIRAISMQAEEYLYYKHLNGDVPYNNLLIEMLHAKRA
Description: Thermofluor assays—Purified LRH-1 LBD-His protein (0.2 mg/ml) was incubated overnight with 50 μM of each compound at 4° C. The final DMSO concentration in the reactions was 1%. SYPRO orange dye (Invitrogen) was then added at a 1:1000 dilution. Reactions were heated at a rate of 0.5° C. per minute, using a StepOne Plus Real Time PCR System (ThermoFisher). […] Data were analyzed by first subtracting baseline fluorescence (ligands+SYPRO with no protein) and then fitting the curves using the Bolzman equation (GraphPad Prism, v6) to determine the Tm. […]

LRH-1 = molecular target: T2, LRH-1 (Homo sapiens, UniProt O00482); assay: Luciferase reporter assay (SHP-luc) in HeLa cells transfected with full-length LRH-1; type: cell-based; settings: for EC50 / EC50 (μM): HeLa cells, SHP-luc reporter, 24 hours, 0.03-30 μM; for Relative Efficacy: fold increase over baseline (DMSO-treated cells) relative to the fold increase induced by RJW100
T2 construct: The transfected plasmids included full-length LRH-1 in a pCI vector; expressed in transfected cells; host or cells: HeLa
T2 sequence (O00482 whole entry): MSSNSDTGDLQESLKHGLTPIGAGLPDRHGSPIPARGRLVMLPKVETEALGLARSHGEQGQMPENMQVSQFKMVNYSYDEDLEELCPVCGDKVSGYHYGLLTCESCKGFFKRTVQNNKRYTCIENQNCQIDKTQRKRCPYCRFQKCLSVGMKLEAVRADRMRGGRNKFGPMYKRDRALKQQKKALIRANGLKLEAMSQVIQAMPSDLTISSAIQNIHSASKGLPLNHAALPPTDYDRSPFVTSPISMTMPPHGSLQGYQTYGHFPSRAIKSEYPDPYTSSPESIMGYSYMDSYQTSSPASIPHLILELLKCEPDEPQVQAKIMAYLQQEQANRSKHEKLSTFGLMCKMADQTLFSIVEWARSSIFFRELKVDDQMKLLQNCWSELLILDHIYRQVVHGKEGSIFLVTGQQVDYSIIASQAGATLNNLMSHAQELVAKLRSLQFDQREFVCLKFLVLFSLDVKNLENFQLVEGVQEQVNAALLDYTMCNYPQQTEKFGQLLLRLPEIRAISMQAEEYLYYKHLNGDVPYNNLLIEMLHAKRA
Description: EC50 and Relative Activity values were calculated from luciferase reporter assays.

[1] = 50 μM compound, relative to DLPC-bound LRH-1

| ΔTm at 50 µM (LRH-1 LBD; [1]) | EC50 (LRH-1) | Relative Efficacy (LRH-1) | EC50 (μM) (LRH-1) | Compound | ΔTm (mean +/− SEM) (° C.) (LRH-1 LBD; [1]) | stabilization of LRH-1-ligand complex / Tm shift (LRH-1 LBD; WT LRH-1) | LRH-1 activation (LRH-1; WT LRH-1) | ΔTm at 50 µM (LRH-1 LBD) |
| --- | --- | --- | --- | --- | --- | --- | --- | --- |
| < 1 °C | 5000 nM | 0.86 | – | C=C(c1ccc(O)cc1)[C@@]12CC[C@@H](O)C1CC(CCCCCC)=C2c1ccccc1 (mixture of isomers) [Compound 23b, (Exo)-5-hexyl-3a-(1-(4-hydroxyphenyl)vinyl)-4-phenyl-1,2,3,3a,6,6a-hexahydropentalen-1-ol] | – | – | – | – |
| < 1 °C | > 30000 nM | 0.9 | – | C=C(c1ccccc1)[C@@]12CC[C@@H](O)C1CC(CCCCCC)=C2c1cc(O)ccc1F (mixture of isomers) [Compound 16f, (Exo)-4-(2-fluoro-5-hydroxyphenyl)-5-hexyl-3a-(1-phenylvinyl)-1,2,3,3a,6,6a-hexahydropentalen-1-ol] | – | – | – | – |
| 2.3 °C | – | 1.43 | cnc | C=C(c1ccccc1)C12CCC(O)C1CC(CCCC(=O)O)=C2c1ccccc1 (stereo not drawn) [Compound 5f, 4-(6-exo-hydroxy-3-phenyl-3a-(1-phenylvinyl)-1,3a,4,5,6,6a-hexahydropentalen-2-yl)butanoic acid] | – | – | – | – |
| < 1 °C | – | 0.70 | cnc | C=C(c1ccccc1)[C@@]12CC[C@@H](O)C1CC(CCCCCC)=C2c1cccc(N)c1 (mixture of isomers) [Compound 15g, (Exo)-4-(3-aminophenyl)-5-hexyl-3a-(1-phenylvinyl)-1,2,3,3a,6,6a-hexahydropentalen-1-ol] | – | – | – | – |
| < 1 °C | – | −0.42 | – | C=C(c1ccccc1)[C@@]12CCC(=O)C1CC(CCCCCC)=C2c1ccccc1 (stereo in doubt) [Compound 27, 5-hexyl-4-phenyl-3a-(1-phenylvinyl)-3,3a,6,6a-tetrahydropentalen-1 (2H)-one] | – | – | – | – |
| < 1 °C | > 30000 nM | 2.8 | – | C=C(c1ccccc1)[C@@]12CC[C@@H](O)C1CC(CCCCCC)=C2c1cc(O)cc(F)c1 (mixture of isomers) [Compound 18f, (Exo)-4-(3-fluoro-5-hydroxyphenyl)-5-hexyl-3a-(1-phenylvinyl)-1,2,3,3a,6,6a-hexahydropentalen-1-ol] | – | – | – | – |
| – | > 30000 nM | −0.2 | – | ((((endo or exo)-5-hexyl-4-phenyl-3a-(1-phenylvinyl)-1, 2, 3, 3a, 6,6a-hexahydropentalen-1-yl)oxy)carbonyl)sulfamic acid [Compound 40-endo] | 1.95 +/− 0.15 °C | greatly stabilized the protein-ligand complex | increased activation of LRH-1 compared to RJW100 | – |
| 3.7 °C | 200 nM | 1.26 | – | C=C(c1ccccc1)[C@@]12CC[C@@H](O)[C@@H]1CC(CCCCCCCO)=C2c1ccccc1 (relative stereo) [Compound 8e, Exo-5-(7-hydroxyheptyl)-4-phenyl-3a-(1-phenylvinyl)-1,2,3,3a,6,6a-hexahydropentalen-1-ol] | – | – | – | – |
| < 1 °C | – | 0.00 | cnc | C=C(c1ccccc1)C12CCC(O)C1CC(CCCCCCOP(=O)([O-])OCC[N+](C)(C)C)=C2c1ccccc1 (stereo not drawn) [Compound 7g, 6-(6-exo-hydroxy-3-phenyl-3a-(1-phenylvinyl)-1,3a,4,5,6,6a-hexahydropentalen-2-yl)hexyl(2-(trimethylammonio)ethyl) phosphate] | – | – | – | – |
| 3.1 °C | 1400 nM | 0.83 | – | C=C(c1ccccc1)[C@@]12CC[C@@H](O)[C@@H]1CC(CCCCO)=C2c1ccccc1 (relative stereo) [Compound 5e, Exo-5-(4-hydroxybutyl)-4-phenyl-3a-(1-phenylvinyl)-1,2,3,3a,6,6a-hexahydropentalen-1-ol] | – | – | – | – |
| < 1 °C | 2000 nM | 2.83 | – | C=C(c1ccccc1)C12CCC(O)C1CC(CCCCCCCCCCO)=C2c1ccccc1 (stereo not drawn) [Compound 11e, Exo-5-(10-hydroxydecyl)-4-phenyl-3a-(1-phenylvinyl)-1,2,3,3a,6,6a-hexahydropentalen-1-ol] | – | – | – | – |
| 2.8 °C | – | 0 | cnc | C=C(c1ccccc1)[C@@]12CC[C@H](OC(N)=O)C1CC(CCCCCC)=C2c1ccccc1 (stereo partly drawn) [Compound 29-endo, (Endo or Exo)-5-hexyl-4-phenyl-3a-(1-phenylvinyl)-1,2,3,3a,6,6a-hexahydropentalen-1-yl carbamate] | – | – | – | – |
| – | – | 0 | – | C=C(c1ccccc1)C12CCC(C#N)C1CC(CCCCCC)=C2c1ccccc1 (stereo not drawn) [Compound 32-endo, (Endo or Exo)-5-hexyl-4-phenyl-3a-(1-phenylvinyl)-1,2,3,3a,6,6a-hexahydropentalene-1-carbonitrile] | ns (Ns = Tm changes were less than 1° C.) | – | – | – |
| < 1 °C | 2000 nM | 2.74 | – | C=C(c1ccccc1)[C@@]12CC[C@@H](O)[C@@H]1CC(CCCCCCCCCOP(=O)([O-])OCC[N+](C)(C)C)=C2c1ccccc1 (relative stereo) [Compound 10g, 9-(6-exo-hydroxy-3-phenyl-3a-(1-phenylvinyl)-1,3a,4,5,6,6a-hexahydropentalen-2-yl)nonyl (2-(trimethylammonio)ethyl) phosphate] | – | – | – | – |
| < 1 °C | > 30000 nM | 2.7 | – | C=C(c1ccccc1)[C@@]12CC[C@@H](O)C1CC(CCCCCC)=C2c1cc(N)ccc1C (mixture of isomers) [Compound 17g, (Exo)-4-(5-amino-2-methylphenyl)-5-hexyl-3a-(1-phenylvinyl)-1,2,3,3a,6,6a-hexahydropentalen-1-ol] | – | – | – | – |
| 1.1 °C | 1000 nM | 0.14 | – | C=C(c1ccccc1)[C@@]12CC[C@@H](OS(C)(=O)=O)C1CC(CCCCCC)=C2c1ccccc1 (stereo partly drawn) [Compound 30-exo, (Endo or Exo) 5-hexyl-4-phenyl-3a-(1-phenylvinyl)-1,2,3,3a,6,6a-hexahydropentalen-1-yl methanesulfonate] | – | – | – | – |
| < 1 °C | 24000 nM | 3.8 | – | C=C(c1ccccc1)[C@@]12CC[C@@H](O)C1CC(CCCCCC)=C2c1cc(N)ccc1F (mixture of isomers) [Compound 16g, (Exo)-4-(5-amino-2-fluorophenyl)-5-hexyl-3a-(1-phenylvinyl)-1,2,3,3a,6,6a-hexahydropentalen-1-ol] | – | – | – | – |
| 1.4 °C | – | 0.85 | cnc | C=C(c1ccccc1)C12CC[C@@H](O)C1CC(CCCCCC)=C2c1cccc(O)c1 (mixture of isomers) [Compound 15f, (Exo)-5-hexyl-4-(3-hydroxyphenyl)-3a-(1-phenylvinyl)-1,2,3,3a,6,6a-hexahydropentalen-1-ol] | – | – | – | – |
| 2.4 °C | – | 1.57 | cnc | C=C(c1ccccc1)C12CCC(O)C1CC(CCCCCO)=C2c1ccccc1 (stereo not drawn) [Compound 6e, Exo-5-(5-hydroxypentyl)-4-phenyl-3a-(1-phenylvinyl)-1,2,3,3a,6,6a-hexahydropentalen-1-ol] | – | – | – | – |
| < 1 °C | 2000 nM | 0.45 | – | C=C(c1ccccc1)[C@@]12CC[C@@H](N=[N+]=[N-])C1CC(CCCCCC)=C2c1ccccc1 (stereo partly drawn) [Compound 31-exo, (Endo or Exo)-5-hexyl-4-phenyl-3a-(1-phenylvinyl)-1,2,3,3a,6,6a-hexahydropentalen-1-azide] | – | – | – | – |
| 1.54 °C | – | 0.14 | cnc | C=C(c1ccccc1)[C@@]12CC[C@@H](OC(N)=O)C1CC(CCCCCC)=C2c1ccccc1 (stereo partly drawn) [Compound 29-exo, (Endo or Exo)-5-hexyl-4-phenyl-3a-(1-phenylvinyl)-1,2,3,3a,6,6a-hexahydropentalen-1-yl carbamate] | – | – | – | – |
| 0.4 °C | – | 0.13 | – | CCCCCCC1=C(c2ccccc2)[C@]2(C(C)c3ccccc3)CC[C@H](O)C2C1 (stereo partly drawn) [Compound 39-endo, (Endo or Exo)-5-hexyl-4-phenyl-3a-(1-phenylethyl)-1,2,3,3a,6,6a-hexahydropentalen-1-ol] | – | – | – | – |
| 4.1 °C | 1000 nM | 1.30 | – | C=C(c1ccccc1)C12CCC(O)C1CC(CCCCCCCCCO)=C2c1ccccc1 (stereo not drawn) [Compound 10e, Exo-5-(9-hydroxynonyl)-4-phenyl-3a-(1-phenylvinyl)-1,2,3,3a,6,6a-hexahydropentalen-1-ol] | – | – | – | – |

| Compound | ΔTm at 50 µM (LRH-1 LBD; [1]) | EC50 (LRH-1) | Relative Efficacy (LRH-1) | EC50 (μM) (LRH-1) | ΔTm (mean +/− SEM) (° C.) (LRH-1 LBD; [1]) | stabilization of LRH-1-ligand complex / Tm shift (LRH-1 LBD; WT LRH-1) | LRH-1 activation (LRH-1; WT LRH-1) | ΔTm at 50 µM (LRH-1 LBD) |
| --- | --- | --- | --- | --- | --- | --- | --- | --- |
| C=C(c1ccccc1)[C@@]12CCC(O)C1CC(CCCCCCCCOP(=O)(OCC)OCC)=C2c1ccccc1 (stereo partly drawn) [Compound 53-endo, (Endo or Exo) diethyl (8-(6-hydroxy-3-phenyl-3a-(1-phenylvinyl)-1,3a,4,5,6,6a-hexahydropentalen-2-yl)octyl)phosphate] | – | – | 1.04 | – | – | – | – | < 1 °C |
| C=C(c1ccccc1)[C@@]12CCC(O)C1CC(CCCCCCCCOP(=O)(OCC)OCC)=C2c1ccccc1 (stereo partly drawn) [Compound 53-exo, (Endo or Exo) diethyl (8-(6-hydroxy-3-phenyl-3a-(1-phenylvinyl)-1,3a,4,5,6,6a-hexahydropentalen-2-yl)octyl)phosphate] | – | – | 0.37 | – | ns (Ns = Tm changes were less than 1° C.) | – | – | – |
